Laboratory results reported in US20070112042A1, “Topical agent for application to the skin prior to luminous treatment” (priority 2003, published 2007).

Test system: dermal collagen production
Details: topical Niacin plus 585 nm pulsed dye laser irradiation versus irradiation alone
From the text: Tests have been carried out for studying the dermal collagen production following topical application of Niacin prior to irradiation with a 585 nm pulsed dye laser.

O=C(O)c1cccnc1 [Niacin, nicotinic acid]
PIIINP levels (biochemical analysis): increase in the PIIINP levels above that of irradiation alone
